Consider 3 compounds from patent publication US20150374689A1, “Use of Levosimendan to Treat Left Ventricular Systolic Dysfunction in Patients Undergoing Cardiac Surgery Requiring Cardiopulmonary Bypass” (TENAX Therapeutics, Inc., priority 2014, published 2015).

The conditions of data set [1]: cited from earlier work; for formation of the metabolite: patients undergoing cardiac surgery.
The test system of data set [2] is patients with left ventricular systolic dysfunction undergoing cardiac surgery requiring cardiopulmonary bypass. Briefly: Double-blind, randomized, placebo-controlled clinical trial of levosimendan (Example 1). Type of data set: in vivo, human. How it is done: A randomized, double-blind, placebo-controlled, multicenter study of levosimendan is conducted in subjects with pre-existing left ventricular systolic dysfunction (documented (i) LVEF≦25% in CABG surgery patients, or (ii) LVEF≦35% in CABG with aortic valve surgery patients, CABG with mitral valve surgery patients, or isolated mitral valve surgery patients) with or without heart failure (NYHA functional Class I-IV), undergoing (1) CABG surgery, (2) CABG with aortic valve surgery, (3) CABG with mitral valve surgery, or (4) isolated mitral valve surgery.
All patients are randomized with planned CPB. Approximately 760 subjects are enrolled in the study. Subjects are randomly assigned to receive either levosimendan or a matching placebo in a 1:1 ratio. The study is divided into a screening phase, a double-blind treatment phase, a double-blind post-treatment and follow-up phase from hospital discharge through Day 30. Day 0 is the day of study drug (levosimendan or matching placebo) initiation. All randomly assigned subjects are followed for 90 days, including subjects who were randomly assigned to treatment but not treated.
In the double-blind treatment phase, every attempt is made to start treatment with study drug as soon as possible prior to surgery. However, in all cases study drug is initiated after arterial line insertion and before skin incision. If a Swan-Ganz catheter is planned, it is preferable to insert it prior to study drug initiation. Study drug is administered as described below. Subjects who were randomly assigned to treatment but not treated will be followed (a) through Day 5 for perioperative MI and the need for IABP/LVAD/ECMO, (b) through postoperative […] for postoperative MI (Day 6-10) and postoperative dialysis, and (c) the occurrence of all-cause mortality through Day 90. All subjects may receive additional standard of care medications including inotropes, vasopressors, vasopressin, antiarrhythmics, diuretics, nitrates, and/or nitric oxide as needed. Due to the potential hypotensive effects of the study drug, the concomitant use of vasodilatory drugs should be used with caution.
Subjects are assigned to 1 of 2 treatment groups (levosimendan 0.2 μg/kg/min for first hour, followed by 0.1 μg/kg/min for the next 23 hours or matching placebo) in a 1:1 ratio based on a computer-generated randomization schedule prepared before the start of the study by an independent statistical group not otherwise involved in the conduct or analysis of the study.
The concentration of the diluted infusion is about 50 μg/mL in 5% dextrose (12.5 mg/255 mL in a 250 mL bag; 25 mg/510 mL, 2 vials in a 500 mL bag). The i.v. tubing is primed to fill the volume to the i.v. entry site before starting the infusion. The diluted infusion is administered intravenously by a peripheral or central route. No other treatments are administered via the same line, and no bolus of study drug is administered. Study drug is infused as a continuous infusion of 0.2 μg/kg/min over the first 60 minutes. After 1 hour, the flow rate is decreased to a continuous infusion of 0.1 μg/kg/min. This dose of study drug is continued for the next 23 hours. On completion of the 24-hour infusion period, the study drug infusion is switched off abruptly.
All-cause mortality data (e.g., the cause and date of death) is collected for all subjects up to Day 30 (+5). A follow-up call documents mortality between Day 30 visit and Day 90. […]

Setting [3] is: through Day 5, same 24-hour infusion regimen.

Regarding `CC1CC(=O)NN=C1c1ccc(NN=C(C#N)C#N)cc1` (single isomer, unassigned; (-)) [levosimendan, (−)-enantiomer of [[4-(1,4,5,6-tetrahydro-4-methyl-6-oxo-3-pyridazinyl)phenyl]hydrazono]prop anedinitrile], the “share of total dose metabolised by the minor pathway (reduction in the intestine to OR-1855)” value in data set [1] (of the total levosimendan dose) was “approximately 6%”. In addition, in data set [2] (Day 30, same 24-hour infusion regimen), the “rate of all-cause death at Day 30 as compared to placebo” value is “smaller”. The “peri- and postoperative morbidity and mortality as compared to placebo” value in data set [2] (levosimendan i.v. 0.2 μg/kg/min for first hour, then 0.1 μg/kg/min for 23 hours, started before skin incision, plus standard care) is “reduces”. In addition, in data set [2] (setting [3]), the “rate of perioperative MI as compared to placebo” value is “smaller” and the “use of mechanical assist (IABP, LVAD, or ECMO) as compared to placebo” value is “reduced”. Further, in data set [2] (through Day 30, same 24-hour infusion regimen), the “need for dialysis as compared to placebo” value is listed as “lesser”.
In the case of `C[C@@H]1CC(=O)NN=C1c1ccc(N)cc1` [OR-1855], the “formation of the metabolite” value in data set [1] is “delayed”.
Consider `CC(=O)Nc1ccc(C2=NNC(=O)C[C@H]2C)cc1` [OR-1896], for which the “time at which maximum concentrations are seen” value in data set [1] (after starting a 24-hour infusion, heart failure patients) was 2 to 4 days. Moreover, the elimination half-life in data set [1] (heart failure patients) is 70 to 80 h. In addition, the “formation of the metabolite” value in data set [1] is “delayed”.
